ChEMBL document CHEMBL2417434, “The first synthesis of natural disulfide bruguiesulfurol and biological evaluation of its derivatives as a novel scaffold for PTP1B inhibitors” (Bioorg Med Chem Lett, 2013)

Legend:
[1] = target: T1, Tyrosine-protein phosphatase non-receptor type 1 (Homo sapiens, UniProt P18031); test: Inhibition of PTP1B (unknown origin)
T1 sequence (P18031 whole entry): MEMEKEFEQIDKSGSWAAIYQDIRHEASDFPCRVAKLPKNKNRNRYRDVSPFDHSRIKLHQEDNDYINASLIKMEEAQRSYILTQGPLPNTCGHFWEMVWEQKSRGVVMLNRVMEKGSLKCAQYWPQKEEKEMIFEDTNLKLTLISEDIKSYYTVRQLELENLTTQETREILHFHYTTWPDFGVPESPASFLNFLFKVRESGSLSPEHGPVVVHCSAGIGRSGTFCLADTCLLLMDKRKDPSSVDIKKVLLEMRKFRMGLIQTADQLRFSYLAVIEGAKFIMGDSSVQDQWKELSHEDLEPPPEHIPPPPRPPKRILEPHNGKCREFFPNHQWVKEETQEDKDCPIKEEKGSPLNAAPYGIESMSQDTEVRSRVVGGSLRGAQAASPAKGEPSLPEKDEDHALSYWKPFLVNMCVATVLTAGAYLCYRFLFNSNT

[2] = target: Receptor-type tyrosine-protein phosphatase F (Homo sapiens, UniProt P10586); test: Inhibition of LAR (unknown origin)
[3] = target: Tyrosine-protein phosphatase non-receptor type 6 (Homo sapiens, UniProt P29350); test: Inhibition of SHP1 (unknown origin)
[4] = target: T2, Tyrosine-protein phosphatase non-receptor type 11 (Homo sapiens, UniProt Q06124); test: Inhibition of SHP2 (unknown origin)
T2 sequence (Q06124 whole entry): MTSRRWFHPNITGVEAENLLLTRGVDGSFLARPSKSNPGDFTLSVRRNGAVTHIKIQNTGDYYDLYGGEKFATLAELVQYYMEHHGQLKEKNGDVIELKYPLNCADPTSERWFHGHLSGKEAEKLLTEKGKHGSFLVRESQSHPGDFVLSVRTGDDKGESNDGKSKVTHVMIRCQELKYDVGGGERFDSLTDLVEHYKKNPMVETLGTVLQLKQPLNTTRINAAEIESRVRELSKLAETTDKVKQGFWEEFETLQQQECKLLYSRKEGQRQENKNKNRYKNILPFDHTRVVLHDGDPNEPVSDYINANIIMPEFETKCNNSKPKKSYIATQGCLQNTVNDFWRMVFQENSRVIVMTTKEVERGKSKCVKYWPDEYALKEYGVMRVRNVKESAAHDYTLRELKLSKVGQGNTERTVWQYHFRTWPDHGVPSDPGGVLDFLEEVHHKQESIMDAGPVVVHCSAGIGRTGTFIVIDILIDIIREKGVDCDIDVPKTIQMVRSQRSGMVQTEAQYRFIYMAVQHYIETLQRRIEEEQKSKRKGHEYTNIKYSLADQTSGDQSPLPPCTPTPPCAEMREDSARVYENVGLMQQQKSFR

[5] = target: T3, Tyrosine-protein phosphatase non-receptor type 2 (Homo sapiens, UniProt P17706); test: Inhibition of TCPTP (unknown origin)
T3 sequence (P17706 whole entry): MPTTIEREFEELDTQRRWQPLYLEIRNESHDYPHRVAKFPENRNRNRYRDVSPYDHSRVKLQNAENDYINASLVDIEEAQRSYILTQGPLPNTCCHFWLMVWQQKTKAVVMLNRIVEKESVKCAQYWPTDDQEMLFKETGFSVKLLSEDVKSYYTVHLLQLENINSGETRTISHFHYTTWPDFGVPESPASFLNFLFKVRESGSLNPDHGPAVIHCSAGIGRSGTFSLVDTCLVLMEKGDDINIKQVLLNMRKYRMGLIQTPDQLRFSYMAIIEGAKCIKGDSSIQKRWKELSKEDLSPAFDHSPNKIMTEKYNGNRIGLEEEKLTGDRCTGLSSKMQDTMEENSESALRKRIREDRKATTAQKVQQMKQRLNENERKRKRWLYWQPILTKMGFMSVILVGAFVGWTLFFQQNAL

Chain of Tyrosine-protein phosphatase non-receptor type 6 (P29350 whole entry): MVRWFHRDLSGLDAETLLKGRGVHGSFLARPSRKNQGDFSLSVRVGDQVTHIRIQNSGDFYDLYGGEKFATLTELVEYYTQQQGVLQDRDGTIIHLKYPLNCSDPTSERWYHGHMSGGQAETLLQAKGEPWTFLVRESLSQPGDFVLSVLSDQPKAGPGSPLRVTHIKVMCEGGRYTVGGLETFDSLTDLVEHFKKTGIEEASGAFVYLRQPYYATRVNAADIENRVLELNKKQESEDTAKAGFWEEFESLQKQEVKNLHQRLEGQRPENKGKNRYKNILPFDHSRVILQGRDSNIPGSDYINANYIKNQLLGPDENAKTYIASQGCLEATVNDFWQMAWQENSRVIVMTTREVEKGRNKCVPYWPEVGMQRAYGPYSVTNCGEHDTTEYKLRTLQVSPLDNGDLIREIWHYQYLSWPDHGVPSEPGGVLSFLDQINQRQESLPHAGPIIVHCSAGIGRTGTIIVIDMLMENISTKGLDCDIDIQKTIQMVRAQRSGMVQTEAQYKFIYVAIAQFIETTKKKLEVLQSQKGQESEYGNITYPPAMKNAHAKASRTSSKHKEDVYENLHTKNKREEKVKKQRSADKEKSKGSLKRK
Chain of Receptor-type tyrosine-protein phosphatase F (P10586 whole entry): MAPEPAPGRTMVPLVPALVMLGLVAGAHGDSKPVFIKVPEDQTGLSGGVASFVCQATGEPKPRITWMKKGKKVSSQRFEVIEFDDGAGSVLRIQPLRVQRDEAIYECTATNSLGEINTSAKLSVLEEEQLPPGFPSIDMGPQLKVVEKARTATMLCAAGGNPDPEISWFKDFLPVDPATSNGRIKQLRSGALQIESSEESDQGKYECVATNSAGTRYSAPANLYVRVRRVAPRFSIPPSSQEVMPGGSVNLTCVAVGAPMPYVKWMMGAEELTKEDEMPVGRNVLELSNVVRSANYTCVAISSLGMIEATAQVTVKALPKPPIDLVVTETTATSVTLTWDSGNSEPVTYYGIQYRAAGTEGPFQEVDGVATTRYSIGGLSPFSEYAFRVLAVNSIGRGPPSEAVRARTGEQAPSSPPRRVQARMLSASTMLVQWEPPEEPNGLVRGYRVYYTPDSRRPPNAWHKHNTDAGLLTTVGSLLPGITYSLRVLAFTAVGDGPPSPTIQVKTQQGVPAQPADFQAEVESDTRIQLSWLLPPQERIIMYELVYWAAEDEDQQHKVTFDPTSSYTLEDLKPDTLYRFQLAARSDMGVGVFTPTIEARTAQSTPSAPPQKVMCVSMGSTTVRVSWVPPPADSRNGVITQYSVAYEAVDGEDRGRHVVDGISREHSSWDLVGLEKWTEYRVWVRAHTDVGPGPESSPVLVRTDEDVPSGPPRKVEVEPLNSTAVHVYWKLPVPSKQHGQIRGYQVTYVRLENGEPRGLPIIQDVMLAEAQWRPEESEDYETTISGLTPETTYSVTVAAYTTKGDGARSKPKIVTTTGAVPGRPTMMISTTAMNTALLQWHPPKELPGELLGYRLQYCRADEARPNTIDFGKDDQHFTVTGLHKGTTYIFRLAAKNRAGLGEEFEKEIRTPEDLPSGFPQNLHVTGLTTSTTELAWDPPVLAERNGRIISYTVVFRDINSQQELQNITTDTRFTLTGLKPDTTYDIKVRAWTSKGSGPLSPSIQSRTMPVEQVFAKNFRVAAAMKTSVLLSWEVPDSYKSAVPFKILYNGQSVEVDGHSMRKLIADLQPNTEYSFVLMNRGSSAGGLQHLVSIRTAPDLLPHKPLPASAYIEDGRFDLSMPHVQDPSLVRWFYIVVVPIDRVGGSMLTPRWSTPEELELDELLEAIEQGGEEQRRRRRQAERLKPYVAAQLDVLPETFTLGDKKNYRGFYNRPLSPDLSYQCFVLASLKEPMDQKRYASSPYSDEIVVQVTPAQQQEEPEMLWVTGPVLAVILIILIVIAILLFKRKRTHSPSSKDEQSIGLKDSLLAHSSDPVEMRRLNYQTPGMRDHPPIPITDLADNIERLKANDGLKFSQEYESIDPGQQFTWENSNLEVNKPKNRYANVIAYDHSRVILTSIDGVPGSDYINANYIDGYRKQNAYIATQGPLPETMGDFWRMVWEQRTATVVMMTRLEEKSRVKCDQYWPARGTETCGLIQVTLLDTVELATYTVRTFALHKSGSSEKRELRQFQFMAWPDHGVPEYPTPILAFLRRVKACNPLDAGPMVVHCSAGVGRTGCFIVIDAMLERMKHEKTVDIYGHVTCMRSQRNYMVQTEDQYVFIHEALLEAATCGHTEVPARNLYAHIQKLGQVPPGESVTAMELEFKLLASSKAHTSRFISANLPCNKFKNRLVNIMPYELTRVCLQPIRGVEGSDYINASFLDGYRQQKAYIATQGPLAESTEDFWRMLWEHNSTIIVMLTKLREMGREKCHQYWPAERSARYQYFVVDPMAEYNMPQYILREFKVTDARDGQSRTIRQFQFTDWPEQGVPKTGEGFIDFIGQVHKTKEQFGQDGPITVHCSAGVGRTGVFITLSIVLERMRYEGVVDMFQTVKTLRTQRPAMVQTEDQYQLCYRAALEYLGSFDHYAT

IC50 [1]	IC50 [2]	IC50 [3]	IC50 [4]	IC50 ([1]; read-out: IC50) [µM]	IC50 ([5]; read-out: IC50) [µM]	Structure (SMILES)	other results
Not Active						O=C(OC1CSS(=O)(=O)C1)c1cc(Br)ccc1Br (configuration not stated)	
Not Active						O=C(OC1CSS(=O)(=O)C1)c1cc2ccccc2[nH]1 (configuration not stated)	
Not Active						O=C(Cc1ccc(Br)cc1)OC1CSS(=O)(=O)C1 (configuration not stated)	
Not Active						O=C(OC1CS[S+]([O-])C1)c1ccc(Br)cc1 (configuration not stated)	
Not Active						O=C(OC1CS[S+]([O-])C1)c1ccccc1Br (configuration not stated)	
	Not Active	Not Active	Not Active	28		O=C(OC1CS[S+]([O-])C1)c1cccc(Br)c1 (configuration not stated)	IC50 [5]: Not Active
Not Active						O=C(OC1CS[S+]([O-])C1)c1ccc(F)cc1 (configuration not stated)	
	Not Active	Not Active	Not Active	29.7	36.8	O=C(OC1CS[S+]([O-])C1)c1ccccc1I (configuration not stated)	
	Not Active	Not Active	Not Active	4.54	11.1	O=C(OC1CS[S+]([O-])C1)c1cc(Br)ccc1Br (configuration not stated)	
	Not Active	Not Active	Not Active	45		O=C(Cc1ccc(Br)cc1)OC1CS[S+]([O-])C1 (configuration not stated)	IC50 [5]: Not Active
Not Active						O=C(OC1CSSC1)c1ccc(Cl)cc1	
		Not Active	Not Active	48.2	42.1	O=C(OC1CSSC1)c1ccccc1I	IC50 ([2]; read-out: IC50): 20.4 µM
	Not Active		Not Active	25.6	20.4	O=C(OC1CSSC1)c1cc(Br)ccc1Br	IC50 ([3]; read-out: IC50): 10.9 µM
	Not Active			24.9	40.7	NS(=O)(=O)c1ccc(C(=O)OC2CSSC2)cc1	IC50 ([3]; read-out: IC50): 14 µM; IC50 ([4]; read-out: IC50): 13.4 µM
Not Active						O=C(Cc1ccc(Br)cc1)OC1CSSC1	
Not Active						O=C(CCc1ccc(Br)cc1)OC1CSSC1	
Not Active						O=C(OC1CSSC1)c1ccccc1	

IC50 [1]	IC50 [2]	IC50 [3]	IC50 [4]	IC50 ([1]; read-out: IC50) [µM]	IC50 ([5]; read-out: IC50) [µM]	Structure (SMILES)	other results
Not Active						COc1ccc(C(=O)OC2CSSC2)c(OC)c1	
Not Active						CC(=O)OC1CSSC1	
	Not Active			78.2		O=C(OC1CSSC1)c1ccoc1	IC50 ([3]; read-out: IC50): 17.9 µM; IC50 ([4]; read-out: IC50): 21.4 µM; IC50 [5]: Not Active
	Not Active			35.2	75.4	O=C(OC1CSSC1)c1ccco1	IC50 ([3]; read-out: IC50): 15.8 µM; IC50 ([4]; read-out: IC50): 22.3 µM
Not Active						O=C(OC1CSSC1)c1ccc[nH]1	
	Not Active	Not Active	Not Active	24.1	35.8	O=C(OC1CSSC1)c1cc2ccccc2[nH]1	
Not Active						O=C(OC1CSS(=O)(=O)C1)c1ccc(Br)cc1 (configuration not stated)	
Not Active						O=C(OC1CSS(=O)(=O)C1)c1ccccc1Br (configuration not stated)	
	Not Active	Not Active	Not Active	29		O=C(OC1CSS(=O)(=O)C1)c1cccc(Br)c1 (configuration not stated)	IC50 [5]: Not Active
Not Active						O=C(OC1CSS(=O)(=O)C1)c1ccc(F)cc1 (configuration not stated)	
Not Active						O=C(OC1CSS(=O)(=O)C1)c1ccc(I)cc1 (configuration not stated)	
Not Active						O=C(OC1CSS(=O)(=O)C1)c1ccccc1I (configuration not stated)	
		Not Active	Not Active	11	34	O=C(OC1CSSC1)c1ccc(Br)cc1	IC50 ([2]; read-out: IC50): 34.6 µM
Not Active						O=C(OC1CSSC1)c1ccccc1Br	
Not Active						O=C(OC1CSSC1)c1cccc(Br)c1	
Not Active						O=C(OC1CSSC1)c1ccc(F)cc1	
				17.5		O=S1(=O)C[C@H](O)CS1 [BRUGUIESULFUROL]	

Structure (SMILES)	IC50 [1]	IC50 [2]	IC50 [3]	IC50 [4]	IC50 ([1]; read-out: IC50) [µM]	IC50 ([5]; read-out: IC50) [µM]	other results
O=C(OC1CS[S+]([O-])C1)c1ccc(I)cc1 (configuration not stated)		Not Active	Not Active	Not Active	22.4	33	
O=C(OC1CS[S+]([O-])C1)c1cc2ccccc2[nH]1 (configuration not stated)		Not Active	Not Active	Not Active	31.4	52.6	
O=C(OC1CSSC1)c1ccc(I)cc1		Not Active	Not Active	Not Active	33.4	34.1	
O=C(OC1CSSC1)c1ccc([N+](=O)[O-])cc1		Not Active	Not Active	Not Active	22.6	37.4	
O=C(OC1CSSC1)c1cc([N+](=O)[O-])cc([N+](=O)[O-])c1		Not Active			14.8	27.3	IC50 ([3]; read-out: IC50): 24.4 µM; IC50 ([4]; read-out: IC50): 13.8 µM
